# Reference: patent US20160002273A1, “THIENO[3,2-D]PYRIMIDINE-6-CARBOXAMIDES AND ANALOGUES AS SIRTUIN MODULATORS” (GLAXOSMITHKLINE LLC, priority 2013, published 2016)
# Experiments:
# SIRT2 = biological target: T1, SIRT2 (Homo sapiens, UniProt Q8IXJ6); experiment: SIRT2 deacetylation of Trp 5-mer peptide, OAADPr mass spec assay; assay type: biochemical; design: His-SIRT2(1-389); details: Trp 5-mer peptide; class symbols; read-out: Trp SIRT2_IC50
# T1 sequence (Q8IXJ6 1-389): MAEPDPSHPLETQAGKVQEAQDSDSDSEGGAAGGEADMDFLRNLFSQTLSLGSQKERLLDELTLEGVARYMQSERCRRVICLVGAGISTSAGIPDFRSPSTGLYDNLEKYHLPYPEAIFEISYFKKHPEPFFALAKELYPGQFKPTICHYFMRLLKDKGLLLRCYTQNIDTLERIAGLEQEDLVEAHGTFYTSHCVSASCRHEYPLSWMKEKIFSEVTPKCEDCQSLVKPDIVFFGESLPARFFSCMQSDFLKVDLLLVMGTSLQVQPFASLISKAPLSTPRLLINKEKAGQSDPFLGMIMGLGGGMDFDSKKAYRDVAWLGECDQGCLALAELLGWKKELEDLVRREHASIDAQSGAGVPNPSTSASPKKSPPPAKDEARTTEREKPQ
# SIRT3 = biological target: T2, SIRT3 (Homo sapiens, UniProt Q9NTG7); experiment: SIRT3 deacetylation of Trp 5-mer peptide, OAADPr mass spec assay; details: Trp SIRT3_IC50, Trp 5-mer peptide; class symbols
# T2 sequence (Q9NTG7 102-399): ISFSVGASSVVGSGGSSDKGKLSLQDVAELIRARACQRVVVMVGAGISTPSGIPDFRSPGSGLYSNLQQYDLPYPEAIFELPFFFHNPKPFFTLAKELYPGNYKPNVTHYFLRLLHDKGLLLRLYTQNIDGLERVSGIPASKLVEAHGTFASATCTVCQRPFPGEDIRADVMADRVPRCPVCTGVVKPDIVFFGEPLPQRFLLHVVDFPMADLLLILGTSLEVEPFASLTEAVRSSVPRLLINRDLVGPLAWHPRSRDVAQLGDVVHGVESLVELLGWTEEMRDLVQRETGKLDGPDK
# Procedure: (§1) All assays were performed at room temperature in reaction buffer (50 mM HEPES, pH 7.5, 150 mM NaCl, 1 mM DTT, 0.05% BSA). […] To prepare the assays for analysis, 20 μL of reaction volume was mixed in 80 μL of 50:50 acetonitrile:methanol mixture. […] Peak data was integrated using RapidFire Integrator software (Agilent, Santa Clara, Calif.).
# SIRT1 = biological target: T3, SIRT1 (Homo sapiens, UniProt Q96EB6); experiment: SIRT1 deacetylation of Trp 5-mer peptide, OAADPr mass spec assay; details: Trp SIRT1_IC50, Trp 5-mer peptide; class symbols
# T3 sequence (Q96EB6 1-747): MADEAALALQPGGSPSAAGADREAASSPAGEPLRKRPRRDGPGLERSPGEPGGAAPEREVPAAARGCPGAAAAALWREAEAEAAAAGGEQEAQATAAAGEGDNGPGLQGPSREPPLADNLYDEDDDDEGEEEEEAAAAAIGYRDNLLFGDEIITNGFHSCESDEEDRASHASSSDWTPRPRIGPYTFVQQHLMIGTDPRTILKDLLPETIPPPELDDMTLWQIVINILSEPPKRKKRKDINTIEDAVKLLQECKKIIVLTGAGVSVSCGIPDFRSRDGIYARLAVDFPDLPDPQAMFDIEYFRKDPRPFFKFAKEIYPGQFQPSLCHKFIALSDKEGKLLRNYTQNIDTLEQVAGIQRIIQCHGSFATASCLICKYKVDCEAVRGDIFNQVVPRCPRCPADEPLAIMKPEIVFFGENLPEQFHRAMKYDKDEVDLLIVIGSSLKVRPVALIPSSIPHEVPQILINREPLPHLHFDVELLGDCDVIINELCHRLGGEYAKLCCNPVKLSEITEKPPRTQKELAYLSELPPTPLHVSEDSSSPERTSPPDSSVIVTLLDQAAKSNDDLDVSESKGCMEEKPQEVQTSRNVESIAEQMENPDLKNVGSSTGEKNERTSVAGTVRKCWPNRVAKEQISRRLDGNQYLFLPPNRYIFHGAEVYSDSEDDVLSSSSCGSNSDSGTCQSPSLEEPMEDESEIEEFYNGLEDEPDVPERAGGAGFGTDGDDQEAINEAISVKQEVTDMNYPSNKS
# Procedure: as §1
SMILES,IC50 (SIRT2),IC50 (SIRT3),IC50 (SIRT1)
"NCCCC1CCN(c2ncnc3cc(C(N)=O)sc23)CC1 [Compound 77, 4-(4-(3-aminopropyl)piperidin-1-yl)thieno[3,2-d]pyrimidine-6-carboxamide 2,2,2-trifluoroacetate]",< 1000 nM,< 1000 nM,< 1000 nM
"CC1(C)COC(C2CCN(c3ncnc4cc(C(N)=O)sc34)CC2)OC1 [Compound 78, 4-(4-(5,5-dimethyl-1,3-dioxan-2-yl)piperidin-1-yl)thieno[3,2-d]pyrimidine-6-carboxamide]",1000 to 10000 nM,1000 to 10000 nM,1000 to 10000 nM
CC(C)(C)OC(=O)NCCN1CCN(c2ncnc3cc(C(N)=O)oc23)CC1 [Compound 86],< 1000 nM,1000 to 10000 nM,< 1000 nM
NC(=O)c1cc2ncnc(N3CCC(CCN4CCCC4)CC3)c2o1 [Compound 87],< 1000 nM,< 1000 nM,1000 to 10000 nM
NC(=O)c1cc2ncnc(N3CCC(CCNC(=O)C4CCCC4)CC3)c2o1 [Compound 88],< 1000 nM,< 1000 nM,< 1000 nM
CS(=O)(=O)NCCN1CCN(c2ncnc3cc(C(N)=O)oc23)CC1 [Compound 89],< 1000 nM,< 1000 nM,1000 to 10000 nM
NC(=O)c1cc2ncnc(N3CCC(CN4CCCC4)CC3)c2o1 [Compound 90],1000 to 10000 nM,< 1000 nM,1000 to 10000 nM
COCCC1CCN(c2ncnc3cc(C(N)=O)oc23)CC1 [Compound 91],1000 to 10000 nM,1000 to 10000 nM,1000 to 10000 nM
NC(=O)c1cc2ncnc(N3CCN(CCN4CCCC4)CC3)c2o1 [Compound 92],< 1000 nM,< 1000 nM,1000 to 10000 nM
NC(=O)c1cc2ncnc(N3CCC(CCO)CC3)c2o1 [Compound 93],< 1000 nM,< 1000 nM,1000 to 10000 nM
"CC(C)(C)OC(=O)N1CCC(C2CCN(c3ncnc4cc(C(N)=O)oc34)CC2)CC1 [Compound 94, tert-butyl 1′-(6-carbamoylfuro[3,2-d]pyrimidin-4-yl)-[4,4′-bipiperidine]-1-carboxylate]",1000 to 10000 nM,> 10000 nM,1000 to 10000 nM
"NCCC1CCN(c2ncnc3cc(C(N)=O)oc23)CC1 [Compound 95, 4-(4-(2-aminoethyl)piperidin-1-yl)furo[3,2-d]pyrimidine-6-carboxamide]",< 1000 nM,1000 to 10000 nM,1000 to 10000 nM
NCCN1CCN(c2ncnc3cc(C(N)=O)oc23)CC1 [Compound 96],1000 to 10000 nM,1000 to 10000 nM,> 10000 nM
CC(C)(C)C(=O)NCCN1CCN(c2ncnc3cc(C(N)=O)oc23)CC1 [Compound 97],< 1000 nM,< 1000 nM,< 1000 nM
NC(=O)c1cc2ncnc(N3CCN(CCNC(=O)C4CCCC4)CC3)c2o1 [Compound 98],< 1000 nM,< 1000 nM,< 1000 nM
CS(=O)(=O)NCCC1CCN(c2ncnc3cc(C(N)=O)oc23)CC1 [Compound 99],< 1000 nM,< 1000 nM,< 1000 nM
"NC(=O)c1cc2ncnc(N3CCC(C4CCNCC4)CC3)c2o1 [Compound 100, 4-([4,4′-bipiperidin]-1-yl)furo[3,2-d]pyrimidine-6-carboxamide]",> 10000 nM,1000 to 10000 nM,> 10000 nM
"CC(C)(C)OC(=O)NCCC1CCN(c2ccnc3cc(C(N)=O)sc23)CC1 [Compound 103, tert-butyl (2-(1-(2-carbamoylthieno[3,2-b]pyridin-7-yl)piperidin-4-yl)ethyl)carbamate]",< 1000 nM,< 1000 nM,< 1000 nM

SMILES,IC50 (SIRT2),IC50 (SIRT3),IC50 (SIRT1)
"NCCC1CCN(c2ccnc3cc(C(N)=O)sc23)CC1 [Compound 104, 7-(4-(2-aminoethyl)piperidin-1-yl)thieno[3,2-b]pyridine-2-carboxamide]",< 1000 nM,< 1000 nM,1000 to 10000 nM
NC(=O)c1cc2nccc(N3CCC(CN4CCCC4)CC3)c2s1 [Compound 105],< 1000 nM,< 1000 nM,1000 to 10000 nM
"CC(C)(C)C(=O)NCCC1CCN(c2ncc(Br)c3cc(C(N)=O)sc23)CC1 [Compound 112, 4-bromo-7-(4-(2-pivalamidoethyl)piperidin-1-yl)thieno[2,3-c]pyridine-2-carboxamide]",1000 to 10000 nM,> 10000 nM,1000 to 10000 nM
"Cc1c(C(N)=O)sc2c(N3CCC(CCNC(=O)OC(C)(C)C)CC3)ncnc12 [Compound 116, tert-butyl (2-(1-(6-carbamoyl-7-methylthieno[3,2-d]pyrimidin-4-yl)piperidin-4-yl)ethyl)carbamate]",< 1000 nM,< 1000 nM,< 1000 nM
"Cc1c(C(N)=O)sc2c(N3CCC(CCN)CC3)ncnc12 [Compound 117, 4-(4-(2-aminoethyl)piperidin-1-yl)-7-methylthieno[3,2-d]pyrimidine-6-carboxamide]",1000 to 10000 nM,1000 to 10000 nM,> 10000 nM
"NCCNC(=O)c1cccc(C(=O)NCCN2CCN(c3ncnc4cc(C(N)=O)sc34)CC2)c1 [Compound 127, N1-(2-aminoethyl)-N3-(2-(4-(6-carbamoylthieno[3,2-d]pyrimidin-4-yl)piperazin-1-yl)ethyl)isophthalamide]",< 1000 nM,< 1000 nM,< 1000 nM
"NC(=O)c1cc2ncnc(N3CCC(CN4CCCC(C(F)(F)F)C4)CC3)c2s1 (stereo not drawn) [Compound 131, 4-(4-((3-(trifluoromethyl)piperidin-1-yl)methyl)piperidin-1-yl)thieno[3,2-d]pyrimidine-6-carboxamide]",< 1000 nM,< 1000 nM,< 1000 nM
NC(=O)c1cc2ncnc(N3CCC(CN4CCCC4C(F)(F)F)CC3)c2s1 (stereo not drawn) [Compound 132],< 1000 nM,< 1000 nM,< 1000 nM
"CCNC(=O)c1cc(Br)cc(C(=O)NCCC2CCN(c3ncnc4cc(C(N)=O)sc34)CC2)c1 [Compound 136, 5-bromo-N^1-(2-(1-(6-carbamoylthieno[3,2-d]pyrimidin-4-yl)piperidin-4-yl)ethyl)-N^3-ethylisophthalamide]",< 1000 nM,< 1000 nM,< 1000 nM
"Cc1nc(N2CCC(CCNC(=O)OC(C)(C)C)CC2)c2sc(C(N)=O)cc2n1 [Compound 145, tert-butyl (2-(1-(6-carbamoyl-2-methylthieno[3,2-d]pyrimidin-4-yl)piperidin-4-yl)ethyl)carbamate]",< 1000 nM,< 1000 nM,1000 to 10000 nM
Cc1nc(N2CCC(CCN3CCCC3)CC2)c2sc(C(N)=O)cc2n1 [Compound 146],1000 to 10000 nM,< 1000 nM,1000 to 10000 nM
Cc1nc(N2CCC(CN3CCCC3)CC2)c2sc(C(N)=O)cc2n1 [Compound 147],1000 to 10000 nM,1000 to 10000 nM,> 10000 nM
COCCC1CCN(c2nc(C)nc3cc(C(N)=O)sc23)CC1 [Compound 148],1000 to 10000 nM,1000 to 10000 nM,1000 to 10000 nM
Cc1nc(N2CCN(CCNC(=O)OC(C)(C)C)CC2)c2sc(C(N)=O)cc2n1 [Compound 149],1000 to 10000 nM,1000 to 10000 nM,> 10000 nM
Cc1nc(N2CCN(CCN3CCCC3)CC2)c2sc(C(N)=O)cc2n1 [Compound 150],1000 to 10000 nM,< 1000 nM,1000 to 10000 nM
Cc1nc(N2CCC(CCO)CC2)c2sc(C(N)=O)cc2n1 [Compound 151],1000 to 10000 nM,1000 to 10000 nM,1000 to 10000 nM
"Cc1nc(N2CCC(CCN)CC2)c2sc(C(N)=O)cc2n1 [Compound 152, 4-(4-(2-aminoethyl)piperidin-1-yl)-2-methylthieno[3,2-d]pyrimidine-6-carboxamide]",1000 to 10000 nM,1000 to 10000 nM,> 10000 nM
